This note sets out measurements from article PMC11750102, “Inhibition of the anti-apoptotic protein BCL2 in EML4-ALK cell models as a second proposed therapeutic target for non-small cell lung cancer” (PLOS ONE, 2025).

By IC50 is commonly meant the concentration that inhibits the measured activity by half. Higher therefore signals weaker potency.

The target in this experiment is T1, Anaplastic lymphoma kinase (ALK) (Homo sapiens, UniProt Q9UM73).
T1 construct: purified recombinant GST-ALK
Kind of experiment: ELISA-based in vitro kinase assay with peptide substrate. In kind it is biochemical. A general note: An ELISA detects its analyte on a solid surface through an enzyme-linked reagent.

Molecules are shown by their SMILES.

T1 sequence (Q9UM73 19-1620): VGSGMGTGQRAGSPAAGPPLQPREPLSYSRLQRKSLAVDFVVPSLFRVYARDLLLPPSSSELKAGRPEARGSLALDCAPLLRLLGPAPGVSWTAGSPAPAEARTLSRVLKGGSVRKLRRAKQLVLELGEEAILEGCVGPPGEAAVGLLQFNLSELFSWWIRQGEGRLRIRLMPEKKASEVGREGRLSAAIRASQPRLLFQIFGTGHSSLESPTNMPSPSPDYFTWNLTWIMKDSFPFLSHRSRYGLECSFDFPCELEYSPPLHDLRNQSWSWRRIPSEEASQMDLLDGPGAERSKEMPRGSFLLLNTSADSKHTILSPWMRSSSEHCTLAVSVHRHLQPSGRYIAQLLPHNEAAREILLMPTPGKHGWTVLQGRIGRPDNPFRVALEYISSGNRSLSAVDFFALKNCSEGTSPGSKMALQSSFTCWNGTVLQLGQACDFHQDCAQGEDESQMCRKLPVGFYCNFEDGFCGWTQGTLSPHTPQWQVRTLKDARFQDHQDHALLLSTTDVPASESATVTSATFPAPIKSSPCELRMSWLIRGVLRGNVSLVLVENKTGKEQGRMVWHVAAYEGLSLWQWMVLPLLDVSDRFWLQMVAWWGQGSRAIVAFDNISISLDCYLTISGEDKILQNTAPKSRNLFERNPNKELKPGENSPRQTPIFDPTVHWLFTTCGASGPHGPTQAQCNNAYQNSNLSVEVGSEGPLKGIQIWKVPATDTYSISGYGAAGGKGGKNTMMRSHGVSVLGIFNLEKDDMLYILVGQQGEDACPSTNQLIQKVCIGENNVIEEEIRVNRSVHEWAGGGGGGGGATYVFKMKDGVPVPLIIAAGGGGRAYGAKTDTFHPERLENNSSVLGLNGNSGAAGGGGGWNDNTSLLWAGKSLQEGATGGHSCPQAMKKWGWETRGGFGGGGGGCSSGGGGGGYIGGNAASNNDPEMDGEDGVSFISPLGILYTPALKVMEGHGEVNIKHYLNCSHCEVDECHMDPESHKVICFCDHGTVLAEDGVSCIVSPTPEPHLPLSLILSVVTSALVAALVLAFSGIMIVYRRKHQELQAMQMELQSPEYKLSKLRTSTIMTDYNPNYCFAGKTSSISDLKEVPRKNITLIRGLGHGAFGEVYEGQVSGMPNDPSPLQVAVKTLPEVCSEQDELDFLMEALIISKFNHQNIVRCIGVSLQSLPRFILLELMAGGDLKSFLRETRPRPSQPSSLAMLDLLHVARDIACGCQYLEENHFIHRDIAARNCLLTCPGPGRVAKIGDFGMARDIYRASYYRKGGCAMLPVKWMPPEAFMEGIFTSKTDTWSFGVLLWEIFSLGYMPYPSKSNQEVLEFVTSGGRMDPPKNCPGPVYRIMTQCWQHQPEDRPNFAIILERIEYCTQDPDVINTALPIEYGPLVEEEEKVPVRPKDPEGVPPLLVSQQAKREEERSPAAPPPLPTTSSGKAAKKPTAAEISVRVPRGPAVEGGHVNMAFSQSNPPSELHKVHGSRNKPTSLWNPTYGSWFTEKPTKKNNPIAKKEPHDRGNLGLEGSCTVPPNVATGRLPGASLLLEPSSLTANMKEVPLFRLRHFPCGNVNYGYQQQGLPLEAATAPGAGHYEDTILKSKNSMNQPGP

`CC1(C)CCC(CN2CCN(c3ccc(C(=O)NS(=O)(=O)c4ccc(NCC5CCOCC5)c([N+](=O)[O-])c4)c(Oc4cnc5[nH]ccc5c4)c3)CC2)=C(c2ccc(Cl)cc2)C1` [ABT-199]: the IC50 worked out at 5.5 µM.
